For one test, the system named is swine adipose tissue. The test can be described thus: In vitro inhibition of lipogenesis (incorporation of radioactive glucose carbon into lipid) in swine adipose tissue slices. The format is cell-based. The conditions noted are these: Sus scrofa, 100 micrograms per milliliter, 37° C., 2 hours, 5% DMSO, compared to control without test compound, triplicate, read-out: Percent Inhibition of lipogenesis. From the text: The manner in which they cause this effect is not known with certainty; it is believed that they interfere with the synthesis of fatty acids in the tissue. Their effectiveness for this purpose has been ascertained by immersing samples of swine adipose tissue in a liquid medium containing radioactive glucose and the test chemical for a period time, then isolating the lipid from the treated tissue and determining the incorporation of the ratioactive carbon into the lipid by means of scintillation counting techniques. These tests were conducted in swine adipose tissue because in swine the primary site of lipogenesis--i.e., fatty acid synthesis--appears to be adipose tissue.
Described in more detail, the tests were conducted according to the following general procedure.
150 milligrams of slices of swine adipose tissue were incubated at 37° C. for 2 hours with shaking in 3 milliliters of Krebs-Ringer bicarbonate solution containing one-half the usual calcium ion concentration, 60 micromoles of glucose, 0.5 microCurie of glucose-U^14 C, and 100 milliunits of insulin, and 5% dimethyl sulfoxide (DMSO). The test compounds were added as a solution or suspension in DMSO and were present at a concentration of 100 micrograms per milliliter of the incubation mixture.
The incubation was terminated by addition of 0.25 milliliter of 1 N sulfuric acid. The resulting mixture was extracted with a total of 25 milliliters of chloroform:methanol (2:1 v/v). The extracts were washed according to Folch et al. (J. Biol. Chem., 226, 497-509, (1957)), air dried, and counted in a liquid scintillation counter with 15 milliliters of counting fluid (two parts toluene containing 0.4% w/v New England Nuclear Omnifluor: 1 part Triton X-100). The tests were conducted in triplicate and were accompanied by control tests in which all ingredients,proportions and conditions were the same except that no test compound was included. From the data obtained were calculated the percent inhibition of lipid synthesis by the test compound in each case. The data obtained from these tests were set out in Table I, as the percent inhibition of lipogenesis compared to the results obtained in the control tests wherein only the test compound was omitted.

Test [1] deals with swine adipose tissue lipid synthesis. Put plainly: In vivo inhibition of swine adipose tissue lipid synthesis (pigs dosed in feed, biopsy slices incubated with radioactive glucose). The conditions noted are these: approx. 25 mg/kg per day for seven days in ration, compared to control animals; for lipogenic rate after 2 weeks: biopsy 1 week after withdrawal of drug; for effect on lipogenesis after 1 week: biopsy after 1 week of drug administration. As to the method: Compounds 1 and 6 were tested to determine the in vivo inhibition of swine adipose tissue lipid synthesis, as follows: pigs weighing about 20 kilograms were administered a fixed drug dose of approximately 25 milligrams of drug per kilogram of animal body weight per day for seven consecutive days. The drug was formulated to contain 10%w active ingredient and was prepared as coarse granules using 4%w plasdene as the granulating agent and lactose as the carrier. […] The daily drug or placebo dose was added to 1.2 kilograms of swine ration; about one-third of the total was fed at 0800, 1200, and 1600 hours. Biopsy samples were obtained from the dorsal subcutaneous adipose tissue (ca 1 gram) in the neck region before drug administration, after 1 week of drug administration, and 1 week after withdrawal of drug. Adipose tissue slices were prepared from the biopsy sample, and in vitro lipogenesis was determined with radioactive glucose as substrate. The incubation was similar to that previously described except that there was no DMSO or test compound in the flasks.

Molecules are shown by their SMILES.

On to `CCCCCCCC[C@@H]1C[C@H]1C(N)=O` (relative stereo) [Compound 4, 2-Octylcyclopropanecarboxamide (trans)], for which the inhibition at 100 µg/mL with swine adipose tissue was more than 20%. The same measure, in the same setting: next, `CCCCCCCCCCCCCC[C@@H]1C[C@H]1C(=O)O` (relative stereo) [Compound 7, 2-tetradecylcyclopropanecarboxylic acid (trans)]: 46%; `CCOC(=O)C1CC1(C#N)c1ccccc1` (stereo not drawn) [Compound 14, Ethyl 2-cyano-2-phenylcyclopropanecarboxylate]: 53%; `O=C(O)[C@@H]1C[C@H]1c1ccccc1` (relative stereo) [Compound 13, 2-phenylcyclopropane-1-carboxylic acid (trans)]: 32%.

Consider `CCOC(=O)C1(C#N)CC1c1ccccc1` (stereo not drawn) [Compound 9, Ethyl 1-cyano-2-phenylcyclopropanecarboxylate], for which the inhibition at 100 µg/mL with swine adipose tissue stood at 57%.

On to `CCCCCCC1CC1(C#N)C(=O)OCC` (stereo not drawn) [Compound 10, Ethyl 1-cyano-2-hexylcyclopropanecarboxylate (trans-)], for which the inhibition at 100 µg/mL with swine adipose tissue stood at 44%. On the same count and under the same terms, the value for `CCCCCCCCC[C@@H]1C[C@H]1C(N)=O` (relative stereo) [Compound 8, 2-Nonylcyclopropanecarboxycarboxamide (trans)] was 34%; that for `N#CC1(C(=O)O)CC1c1ccccc1` (stereo not drawn) [Compound 11, 1-Cyano-2-phenylcyclopropanecarboxylic acid] was 49%. Same read-out and setting: the value for `CCCCCCCCC[C@@H]1C[C@H]1C(=O)O` (relative stereo) [Compound 5, 2-Nonylcyclopropanecarboxylic acid (trans)] was 79%; that for `CCCCC1CC1C(=O)OCC` (stereo not drawn) [Compound 3, Ethyl 2-butylcyclopropanecarboxylate] was 24%; that for `CCCCCCCCC[C@@H]1C[C@H]1C(=O)OCC` (relative stereo) [Compound 2, Ethyl 2-nonylcyclopropanecarboxylate (trans-)] was 27%. Regarding `CCCCCCCC[C@@H]1C[C@H]1C(=O)O` (relative stereo) [Compound 6, 2-octylcyclopropanecarboxylic acid (trans)], in test [1], the “lipogenic rate after 2 weeks” value was “significantly reduced the lipogenic rate” and the “effect on lipogenesis after 1 week” value is “neither of the test compounds had significantly affected lipogenesis”. Moreover, the inhibition at 100 µg/mL in the test with swine adipose tissue was 77%. With `CCOC(=O)C1CC1COC(C)=O` (stereo not drawn) [Compound 12, Ethyl 2-((acetyloxy)methyl)cyclopropanecarboxylate], the inhibition at 100 µg/mL with swine adipose tissue came out at 31%. As for `CCCCCCCC[C@@H]1C[C@H]1C(=O)OCC` (relative stereo) [Compound 1, Ethyl 2-octylcyclopropanecarboxylate (trans)], in test [1], the “lipogenic rate after 2 weeks” value is recorded as “significantly reduced the lipogenic rate” and the “effect on lipogenesis after 1 week” value is “neither of the test compounds had significantly affected lipogenesis”. For the same compound, the inhibition at 100 µg/mL with swine adipose tissue is more than 20%.

For the origin of these results see patent US4202902A, “Lipogenesis control by cyclopropane-carboxylic acids, esters and amides” (Shell Oil Company, priority 1979, dated 1980).
